The values below come from publication PMC8234864, “Early Effects of the Soluble Amyloid β25-35 Peptide in Rat Cortical Neurons: Modulation of Signal Transduction Mediated by Adenosine and Group I Metabotropic Glutamate Receptors” (International Journal of Molecular Sciences, 2021).

In experiment [1] the test system is Group I mGluR/PLC signalling pathway. Nature of the experiment: Phospholipase C activity (IP3 accumulation), basal and DHPG-stimulated. Type of experiment: cell-based, rat. The protocol:
This method was previously reported and is divided into two well-defined steps: IP3 accumulation: culture medium was discharged, and cells were washed twice with DMEM containing 20 mM HEPES, pH 7.4. After 20 min at 37 °C, different ligands were added to cells for 10 min at 37 °C to analyse their effect on PLC activity in a final reaction volume of 300 μL. The enzymatic reaction was stopped and cells lysed by adding 50 μL 2.8 M perchloric acid and placing plates on ice for 30 min. The medium was neutralized with 70 μ[…] Tris-HCl, 2 M KOH, and 60 mM EGTA, transferred to Eppendorf tubes and centrifuged at 12,000× g for 10 min. The supernatant was then collected to determine the IP3 level. IP3 level determination: IP3 levels in cells were determined as previously reported by Palmer and modified by […] [100]. Incubation of [^3H]IP3 (0.2 pmol; 3000-5000 cpm) in assay buffer (100 mM Tris-HCl, 4 mM EDTA, 4 mM EGTA, 4 mg/mL BSA, pH 9.0), binding protein (500-600 μg), and 25-50 μL of supernatant obtained from IP3 accumulation assay was carried out. Samples were incubated at 4 °C for 60 min and centrifuged at 12,000× g for 10 min. Pellets were suspended in 100 μL 0.2% SDS and transferred to scintillation vials to measure radioactivity. A standard curve was made with known [^3H]IP3 concentrations (0.25-10 μM). Nonspecific binding was determined in the presence of 10 μM unlabeled IP3. Binding protein was obtained from bovine suprarenal capsules according to Palmer's protocol.

Experiment [2] has as its system A1R (ADORA1) gene expression. Nature of the experiment: A1R gene expression by real-time PCR. Type of experiment: cell-based, rat. The conditions noted are these: 25 µM, 24 or 48 h. The protocol: Total RNA was extracted using an ABI 6100 Nucleic Acid PrepStation according to the manufacturer’s protocol (Applied Biosystems Inc., Foster City, CA, USA). Total RNA from cells was isolated and stored at −80 °C. The quality of isolated RNA was estimated by the ratio A260/A280 and was in the range of 1.9–2.1. RNA integrity was evaluated by agarose gel electrophoresis according to MIQE guidelines using the “bleach gel” method. RNA concentrations were determined from the A260. One microgram of total RNA was reverse transcribed using Applied Biosystems High-Capacity cDNA Archive Kit.
To assess relative gene expression in neurons, quantitative real-time RT-PCR analysis was performed with an Applied Biosystems Prism 7500 Fast Sequence Detection System using TaqMan® universal PCR master mix according to the manufacturer’s specifications. […] Levels of RNA expression were determined using the 7500 Fast System SDS software version 1.3.1 (Applied Biosystems) according to the 2^−ΔΔCt method. […] The results from three independent repeat assays, performed in different plates each using different cDNA’s from the cultures analyzed, were averaged to produce a single mean quantity value for each mRNA.

The target in the next experiment is T1, A1R (Rattus norvegicus, UniProt P25099).
T1 construct: endogenous in cells; host or cells: rat primary cortical neurons (intact)
T1 sequence (P25099 1-326): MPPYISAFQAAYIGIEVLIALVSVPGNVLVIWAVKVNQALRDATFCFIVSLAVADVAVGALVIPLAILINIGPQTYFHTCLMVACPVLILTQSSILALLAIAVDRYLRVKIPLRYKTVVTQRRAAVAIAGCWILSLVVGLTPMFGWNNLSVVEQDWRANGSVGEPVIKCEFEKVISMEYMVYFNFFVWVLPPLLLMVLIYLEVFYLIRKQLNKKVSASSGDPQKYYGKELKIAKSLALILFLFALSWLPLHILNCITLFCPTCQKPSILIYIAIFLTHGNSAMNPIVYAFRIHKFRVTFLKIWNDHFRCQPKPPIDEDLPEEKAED
Nature of the experiment: [3H]DPCPX radioligand binding in intact cortical neurons. The conditions noted are these: for Total A1R density (Bmax) increase over control value: 25 µM; for A1R Bmax: [3H]DPCPX saturation binding. How it is done: Concerning adenosine receptor assessment by radioligand binding, [^3H]DPCPX and [^3H]ZM241385 were employed as selective A1R and A2AR radioligands, as described previously, to determine A1R and A2AR density, respectively. Briefly, primary cortical neurons growth in 24-well plates were washed with serum-free DMEM and pre-incubated with 2 U/mL ADA at 37 °C for 30 min to remove endogenous adenosine. After incubation, the radioligands [^3H]DPCPX (1–20 nM) or [^3H] ZM241385 (1–20 nM) were added in the absence or the presence of CPA in a concentration 10^4 times higher than the radioligand, to obtain non-specific binding to A1R, or 5 mM theophylline, to obtain non-specific binding to A2AR. A specific adenosine uptake inhibitor (1 µM dipyridamole) was added to the reaction mixture to block adenosine receptor ligands’ binding to adenosine transporters. After incubation at 25 °C for 2 h in a final volume of 250 µL, cells were washed with 500 µL of ice-cold buffer and disrupted with 0.2% SDS. Well contents were then transferred to vials and a scintillation liquid mixture was added to measure radioactivity. Two wells from each plate were reserved for protein concentration measurement.

Setting [3] is: neurons exposed to 25 µM for 24 h.
The mark [4] stands for this setting: neurons exposed to 25 µM for 48 h.

Several values for one entry are separate records, joined by “and”; a condition that tells them apart may be missing. Equal values may be shown once. Where no end group is shown, it is not given here.

For GSNKGAIIGLM [Aβ25-35], in experiment [1] (25 µM, 24 h, 30 µM DHPG for 10 min), the “decrease in DHPG-stimulated PLC activity” value was 13%. Moreover, in experiment [1] (neurons exposed to 25 µM for 24 h, unstimulated, absence of DHPG), the “basal PLC activity” value was 17.61 ± 4.85 pmol/mg/min and 17.6 ± 4.8 pmol/mg/min. In addition, in experiment [2], the A1R gene expression entry is listed as “significantly increased”. In addition, the “Total A1R density (Bmax) increase over control value” on A1R (24 h) came out at 265%; at A1R (48 h), 184%. Besides, the Kd came out at 7.51 ± 2.35 nM at A1R (setting [3]) and 5.51 ± 1.33 nM at A1R (setting [4]). In addition, the “A1R Bmax” value is recorded as 545 ± 101 fmol/mg prot at A1R (setting [3]) and 423 ± 66 fmol/mg prot at A1R (setting [4]).
